# Data taken from patent US6057153A, “Stabilized external guide sequences” (Yale University, priority 1997, dated 2000).
# Tests used:
# [1] = APL patients, cited from earlier work
# [2] = system: APL RNA (PML-RARα fusion junction); experiment: Test tube cleavage assay; format: biochemical; conditions: 0.25 μM EGS, RNase P from HeLa cells
# Experimental: Test tube cleavage assay: Three nanograms of linearized pAPL-3Z3 plasmid with HindIII restriction enzyme was transcribed as described in Example 1 in presence of ^32 P-ATP for 30 minutes 0.25 μM (final concentration) of EGS and 2 μl of a purified preparation of RNase P from HeLa cells (Bartkiewicz et al., Genes and Development, 3:488-499 (1989)) was added to the transcription reaction during the transcription. The reaction products were separated on a denaturing polyacrylamide gel and visualized using a Molecular Dynamics PHOSPHORIMAGER™.
# [3] = system: NB4/D5 cells; experiment: MTT proliferation assay; format: cell-based, human; conditions: for effect on cell growth as measured by MTT assay: NB4/D5 cells, 1 to 10 μM EGS, daily replacement; for concentration above which dose dependent inhibition of NB4 cell growth was observed: NB4 cells, MTT assay
# Experimental: Cell culture testing: NB4 cells, a maturation inducible cell line with t(15;17) translocation marker isolated from an acute promyelocytic leukemia patient (Lanotte et al. (1991)) was used to test the antiproliferative activity of EGSs targeted to PML-RARα. These cells respond to maturation-inducing effects of all-trans retinoic acid. One subclone of NB4 cells, NB4/D5, which uniformly responds to retinoic acid (Ahn et al. (1995)), was used for cell culture testing. The NB4 cells were grown in RPMI media containing 10% fetal bovine serum (Intergen, Purchase, N.Y.), 100 U/ml penicillin, 200 μg/ml streptomycin, and 20 mM glutamine with pCO2 of 5% at 37° C.
# All treatments were done in triplicate and experiments were repeated more than once. NB4/D5 cells which were maintained in logarithmic growth phase were seeded at a density of 1×10^5 cells in 1 ml of RPMI medium in a 24 well tissue culture plate. Increasing concentrations of EGS were added to the cells. More than 90% of the media was removed every 24 hours and replaced with fresh media containing the same concentration of EGS. An aliquot of the cells was removed every 24 hours and an MTT proliferation assay (as described by Mosmann et al., Journal of Immunological Methods, 65:55 (1983)) was performed on these cells.
# [4] = system: Substrate RNA (SUB-156); experiment: RNase P-mediated cleavage assay, single turnover conditions; format: biochemical, hepatitis B virus (HBV); conditions: 200 nM EGS, 20 nM substrate, saturating RNase P, 60 min
# Experimental: RNase P-mediated cleavage assay--Human RNase P was purified from HeLa cells according to the published procedures (14). Substrate RNA (SUB-156, FIG. 24) was 5'-end labeled using T4 polynucleotide kinase and [γ-^32P]ATP. The labeling mixture was then heated to 85° C. for 1 min, diluted with RNase-free water, and purified by a MICROSPIN™ G-25 column (Pharmacia) according to the manufacturer's instructions. Cleavage reactions were conducted in a reaction buffer containing 50 mM Tris-HCl (pH 7.4), 25 mM KCl, 10 mM MgCl2 and 0.1 mM EDTA. EGS oligomers and ^32 p-5'-end-labeled RNA substrate were heated in the reaction buffer without MgCl2 to 85° C. for 1 min and then slowly cooled to room temperature. The cleavage reaction was initiated by adding 2 μl of 100 mM MgCl2 and 3 μl of RNase P (enzyme activity for this preparation: cleavage of 0.035 pmol of tRNA^Tyr precursor min^-1 μl^-1). The final reaction volume was 20 μl and the reaction was incubated at 37° C. for 60 min. […] For each sample, cleavage reactions were performed in duplicates and the average values were used. To ensure reproducibility, cleavage assays for each EGS were also repeated in two separate experiments. The all-RNA EGS-159 was used as the reference sample and its cleavage values were counted as 100%. Cleavage percentages of all other EGSs were normalized against EGS-159 (Rel. Cleavage %) except in FIG. 30 and FIG. 31 where absolute cleavage percentages (Abs. Cleavage %) were plotted.
# (§1) For EGS-single turnover conditions, the final concentrations were 200 nM for EGS and 20(nM for the RNA substrate. For EGS-multiple turnover conditions, the final concentrations were 200 nM for the RNA substrate and 40 nM for EGS. When determination of the time-course was required, the reaction volume was increased to 40 μl. Aliquots of 5-8 μl were removed from the reaction mixture at different time points (e.g. 1, 5, 15, 30 and 60 min), quenched in formamide loading buffer, and loaded onto 15% polyacrylamide/8 M urea gels. Quantitation of the cleavage product and the remaining RNA substrate was achieved using a Molecular Dynamics PHOSPHORIMAGER™.
# General considerations--To select lead nuclease-resistant oligonucleotide prototypes as external guide sequences among many possible modifications, a reliable yet rapid in vitro cleavage assay for routine screening was used. Human RNase P, a ribonucleoprotein, is composed of a 340-nt H1 RNA component and one or more proteins (for recent review, see Ref. 16). A 3-step screening strategy was devised: 1) All analogues once synthesized were tested by a fast qualitative cleavage assay under single turnover conditions with 10-fold excess of EGS over target RNA substrate for 60 min. […] This was the best cleavage condition used in this study. Any analogue with a reasonable activity (e.g. more than 5% cleavage) would not be missed, under these circumstances, due to the high detection sensitivity provided by PHOSPHORIMAGER™. 2) Promising analogues were then assayed for stability in 50% human serum.
# [5] = Nuclease resistance studies in 50% human serum; format: in vitro ADME; conditions: 37° C., 24 h
# Experimental: Nuclease resistance studies--100 μl of EGS oligonucleotides (5 μM), containing a trace of 5'-end-labeled oligomers, were incubated at 37° C. for different time periods (0-24 h) with 50% human serum (Sigma, S-7023). 20 μl aliquots were diluted to 100 μl with RNase-free water, phenol/chlorform extracted, and ethanol precipitated. The residue was resuspended in 10 μl of TE and 10 μl of 2× gel loading buffer containing 98% formamide, 10 mM1 EDTA and 0.1% bromophenol blue. The mixture was heated to 85° C. for 1 min, quickly cooled on ice and frozen at -20° C. prior to electrophoresis on 15% polyacrylamide/8 M urea gels. Gels were subsequently scanned on a Molecular Dynamics PHOSPHORIMAGER™, and the stability profile for each, oligomer was estimated from the ratio of the remaining intact materials versus all radio-labeled materials (intact oligomers plus degradation products). Stability studies of non radio-labeled EGS oligomers using capillary gel electrophoresis were also carried out according to the method of Leeds et al. (15).
# [6] = system: EGS/target RNA complex (SUB-156) with human RNase P; experiment: Measurements of kcat and A50; format: biochemical, hepatitis B virus (HBV)
# Experimental: Measurements of kcat, Km and A50 --Measurements of these kinetic parameters were carried out using conditions similar to those described above (e.g. identical cleavage buffers). For kcat measurements, aliquots were taken every 30-60 s for the first 5 min. The logarithm of the percentage of cleavage (Abs. Cleavage %) was plotted against time, and the data points were fitted using a linear least-squaresanalysis. The slope represents kcat values. For Km measurements,a fixed amount of RNase P (0.6 μl) was used, while substrate concentrations (i.e. EGS/target RNA complex) varied from 25 to 500 nM. Several EGS/target RNA ratios were assayed including 1:1, 5:1 and 10:1. Attempts were made to obtain Km and Vmax values from linear Lineweaver-Burk or Eadie-Hofstee plots. The scattered values could not be fit as a hyperbolic function. For A50 measurements, the ratio between EGS and target RNA was kept as 10:1. Various amounts of RNase P (0.3 to 3 μl) were used to conduct a 60-min cleavage reaction. Percentage of cleavage was plotted against [RNase P] in μl, and 50% cleavage values (A50) were determined using a non-linear, least-squares routine (Kaleidagraph, Synergy Software). The amount of RNase P required to reach A50 was then converted to enzyme unit. 1 unit of RNase P represents the amount of RNase P that catalyzes the conversion of 1 pmol of tRNA^Tyr precursor to cleavage products per minute per μl of the enzyme preparation. 1 unit of RNase P preparation used for this study equals 28.57 μl.
# [7] = system: target RNA SUB-156; experiment: RNase P-mediated cleavage, EGS-multiple turnover conditions; format: biochemical, hepatitis B virus (HBV); conditions: 5-fold of RNA target over EGS
# Experimental: FIG. 31 is a graph of a time-course of cleavage with selected EGSs under EGS-multiple turnover conditions. Experiments were conducted under similar conditions as that used in FIG. 30 with the exception that the molar ratio between ^32 P-5'-end-labeled target RNA SUB-156 and the respective EGSs was 5:1. Saturing amounts of RNase P were employed. Aliquots were withdrawn from the cleavage reaction at different time points, quenched in formamide loading buffer and loaded on 15% polyacryladmide/8 M urea gels. Absolute percentages of cleavage are expressed on the Y-axis. EGS-159 (.circle-solid.) is the all-RNA EGS control and EGS-407 (.smallcircle.) is one of the lead modified prototypes.
# as §1
# [8] = system: HBV RNA; experiment: RNase protection assay after transfection of pol III EGS expression vectors; format: cell-based; conditions: HepG2.2.15 cells transfected with EGS plasmids
# Excerpt: Cloning of EGS 2 and EGS 62: pREP9 (Invitrogen, San Diego, Calif.), an Epstein-Barr virus-based vector (Yates et al., Nature, 313:812-815 (1985)), was cut with XbaI and KpnI to remove the RSV LTR promoter sequence in the vector and a 244 nucleotide human U6 promoter (hU6; from nucleotide +1 to -244) was cloned into this region. cDNAs corresponding to EGS 2 and EGS 62 (see FIGS. 19 and 20, respectively) were synthesized on an Applied Biosystems DNA synthesizer, purified and cloned downstream of the hU6 promoter between KpnI and BamHI. The EGS sequence and the hU6 promoter sequence were excised using XbaI and BamHI and subcloned in pCEP4 (Invitrogen, San Diego, Calif.) that had been digested with BglII and NheI. […]
# All plasmids were amplified in bacteria and the plasmid DNAs were purified using Qiagen (Qiagen Inc., Chatsworth, Calif.) columns. […] The protected fragments were separated on a 6% denaturing polyacrylamide gel, and the radioactivity associated with the protected bands were quantitated using a Molecular Dynamics PHOSPHORIMAGER™. The quantitation of the GAPDH RNA was used to normalize the samples.
compound,measurement,setting,value
"CC1=C(/C=C/C(C)=C/C=C/C(C)=C/C(=O)O)C(C)(C)CCC1 [TRETINOIN, all-trans retinoic acid]",patients in whom remission was induced,[1]; several published studies,about 48%
same,"duration of the remission, average",[1],3.5 months
APL 1009: EGS SEQ ID NO. 12 targeted to the fusion junction of PML-RARα (guide GUCUCAAGAAGGUUCGAAUCCUUCGGCUGCC; chemistry not given here),cleavage of the APL RNA at the fusion junction,[2],induced cleavage
same,effect on cell growth as measured by MTT assay,[3],inhibitory to cell growth
same,concentration above which dose dependent inhibition of NB4 cell growth was observed,[3],above 3 μM
"EGS-407: lead prototype, U54 replaced with thymidine, SEQ ID NO. 46 (AGAUGAUAGAAGGTUAGAAUCCUUCACGCCGC; guide RNA; Thymidine at tRNA position 54, rest of chemistry not given here)",RNase P-mediated cleavage activity compared to the all-RNA control,[4],promising
same,degradation in 50% human serum,[5],no degradation products were detected
same,A50 (amount of RNase P required to achieve 50% cleavage),"[6]; 60 min, EGS in 10-fold excess relative to the RNA target",0.053 unit
same,kcat,"[6]; single turnover, first 5 min",indistinguishable from that of the all-RNA control
same,turnover over a course of 60 min,[7],about 3 times
APL A20: EGS SEQ ID NO. 11 targeted to the fusion junction of PML-RARα (guide GGGUCUCAGGCCCGGGUUCGAUUCCCGGUGGCUGC; chemistry not given here),cleavage of the APL RNA at the fusion junction,[2],induced cleavage
same,effect on cell growth as measured by MTT assay,[3],inhibitory to cell growth
same,concentration above which dose dependent inhibition of NB4 cell growth was observed,[3],above 3 μM
"EGS 2A: SEQ ID NO. 27, anti-HBV EGS expressed from hU6 pol III vector (guide GTGCTCGCTTCGGCAGCACTATACGCAGCGATCCGGGTTCCCGGCCAGGACACTATTTTT)",inhibition of HBV RNA expression (ranking),[8],maximal inhibition
